Assay results: US20240270779A1, “NOVEL PHENYLPROPANOID COMPOUND” (NABOCUL COSMETICS CO., LTD., priority 2021, published 2024)

Key:
[1] = tested on: B16 melanoma cells; assay: MTT cytotoxicity test on B16 melanoma cells; assay type: cell-based, mouse; details: concentrations of 1 to 100 μM, 48 hours, FIG. 13
Description: (§1) In this test, B16 melanoma cells were used. A B16 melanoma cell, a mouse skin melanoma-derived cell line, has melanogenic capacity. B16 melanoma cells were cultured in a DMEM medium (containing 10% FBS, 100 U/mL penicillin and […] streptomycin) in the presence of 5% CO2 at 37° C. and saturated humidity.
(§2) Ceratonia siliqua B was diluted with a DMEM medium to obtain sample solutions with different concentrations of 1 μM, 5 μM, 10 μM, 50 μM and 100 μM.
(§3) First, an MTT test was performed to confirm the presence or absence of cytotoxicity of Ceratonia siliqua B against B16 melanoma cells. B16 melanoma cells that had been subcultured for three generations or more were treated with trypsin to prepare a single cell suspension having a concentration of 3×10^4 cells/mL. A 100 μL portion of this cell suspension was seeded in each well of a 96-well microplate and cultured overnight in a CO2 incubator. The supernatant was removed from each well, and the wells were divided into a control (blank control) group and a test group. […] After 4 hours, the supernatant was removed, a 150 μL portion of DMSO was added to each well, and the absorbance at 570 nm was measured with a microplate reader. […]
(§4) The cell viability of the test group was calculated taking the value for the control (blank control) group as 100.

[2] = tested on: HepG2 cells; assay: Measurement of ROS in HepG2 cells (hydrogen peroxide induced, DCFH-DA); assay type: cell-based, human; details: 1-100 μM, 24 hours pre-culture, 400 μM hydrogen peroxide 90 minutes, FIG. 12
Description: Ceratonia siliqua B obtained in Example 2 was used to examine the effect of Ceratonia siliqua B on the generation of reactive oxygen species (ROS) in living cells.
(§5) In this test, a HepG2 cell, a human liver-derived tumor cell line was used as a living cell. HepG2 cells were cultured in a DMEM medium (containing 10% FBS, 100 U/mL penicillin and […] streptomycin) in the presence of 5% CO2 at 37° C. and saturated humidity.
A HepG2 cell suspension having a concentration of 1×10^5 cells/mL was prepared, and a 100 μL portion of the cell suspension was seeded in each well of a 96-well microplate and cultured in a CO2 incubator for 24 hours. These wells were divided into a blank control group, a positive control group and a test group. […] Thereafter, the medium in each well was removed, 100 μL of PBS was added thereto, and fluorescence intensity at 535 nm was measured at an excitation wavelength of 485 nm. The amount of ROS generated in the positive control group and the test group was calculated taking the fluorescence intensity of the blank control group as 1.0 (basal). […]

[3] = tested on: B16 melanoma cells; assay: Amount of melanin produced in B16 melanoma cells (melanogenesis inhibition); assay type: cell-based, mouse; details: for inhibition at 10 µM: concentration 10 μM
Description: as §1, §2
A single cell suspension of B16 melanoma cells was prepared, and 4×10^4 B16 melanoma cells were seeded in each well of a 12-well microplate. After culturing overnight in a CO2 incubator, the supernatant was removed, and the wells were divided into a blank control group, a positive control group and a test group. A 1 mL portion of a DMEM medium was added to each well of the blank control group, a 1 mL portion of each of solutions of L-ascorbic acid dissolved in DMEM medium at different concentrations (a concentration of L-ascorbic acid: 0.1 μM, 5 μM, 10 μM) was added to each well of the positive control group, and a 1 mL portion of each of the sample solutions from the above (b) was added to each well of the test group. After culturing for 48 hours, the supernatant was removed from each well followed by washing twice with PBS buffer, treatment with trypsin and addition of 1.2 mL of PBS buffer to prepare a single cell suspension. A 200 μL aliquot of this cell suspension was taken to determine the protein content. The remaining cell suspension was centrifuged at 3000 rpm for 5 minutes to remove the supernatant. Thereafter, 250 μL of a 1 M NaOH solution containing 1% DMSO was added thereto and dissolved for 30 minutes in a water bath heated to 80° C. A 200 μL aliquot of this solution was taken and the absorbance at 405 nm (Atest group, Apositive control group, Ablank control group) was measured. The test was performed in triplicate (3 wells) for the blank control group, for the positive control group and for each concentration of the sample solution in the test group (n=3).
The intracellular melanogenesis inhibition rate (%) was determined for the test group and the positive control group by the following equations:
[formula] • wherein Atest group is the absorbance of the test group, Apositive control group is the absorbance of the positive control group, and Ablank control group is the absorbance of the blank control group.

[4] = DPPH radical scavenging activity; assay type: biochemical; details: sample solutions 1-100 μM, 30 minutes at room temperature in the dark, absorbance 517 nm, FIG. 10
Description: Ceratonia siliqua B obtained in Example 2 was used to measure the DPPH radical scavenging activity of Ceratonia siliqua B.
First, Ceratonia siliqua B obtained in Example 2 was accurately weighed out and dissolved in methanol to prepare a sample solution with a concentration of 100 μM. This sample solution having a concentration of 100 μM was further diluted with methanol to obtain sample solutions with different concentrations of 1 μM, 5 μM, 10 μM and 50 μM. Next, 2 mg of DPPH (2,2-diphenyl-1-picrylhydrazyl) was dissolved in 50 mL of methanol to prepare a 100 μM DPPH solution.
A 190 μL portion of the DPPH solution was placed in each of wells of a 96-well microplate, and 10 μL of the sample solution was quickly added thereto. […] Thereafter, the absorbance at 517 nm (Asample) was measured with a microplate reader. The reaction solution to which methanol was added instead of the sample solution was used as a blank, and the absorbance of the blank (Ablank) was measured. In addition, the absorbance (Asample blank) due to coloration of the sample solution itself at each concentration was measured as a sample blank. […]
The radical scavenging rate (%) was determined by the following equation.
[formula] • wherein Ablank is the absorbance of the blank, Asample is the absorbance of the sample solution, and Asample blank is the absorbance of the sample blank.

[5] = tested on: HepG2 cells; assay: MTT cytotoxicity test on HepG2 cells; assay type: cell-based, human; details: concentrations of 1 to 100 μM, 48 hours, FIG. 11
Description: as §5, §2
as §3, with “HepG2” for “B16 melanoma”, “have” for “had”, “1×10^5” for “3×10^4”, “cultured” for “cultured overnight”, “incubator for 24 hours. After culturing, the” for “incubator. The”, “removed,” for “removed from each well,”
as §4

[6] = Mus musculus, B16, 48 h, 48 hours, B16 melanoma cells, read-out: Melanogenesis inhibition rate (%)

**Q.** For `COc1cc(/C=C/COC(=O)C(C)C)cc(OC)c1O[C@@H]1O[C@H](CO)[C@@H](O)[C@H](O)[C@H]1O` [Ceratonia siliqua B], which “cytotoxicity against B16 melanoma cells (MTT, cell viability)” value [1] is on record?
**A.** Its value is “no cytotoxicity”.

**Q.** And the “ROS generation inhibiting effect in HepG2 cells” value [2]?
**A.** The value was “inhibited the increase in ROS induced by hydrogen peroxide in HepG2 cells in a concentration-dependent manner”.

**Q.** What about the inhibition at 10 µM [3, 6] of the same compound?
**A.** Its inhibition at 10 µM is 20.2%.

**Q.** And the inhibition at 50 µM ([3]; Mus musculus, B16, 48 h, concentration 50 μM, 48 hours, B16 melanoma cells, read-out: Melanogenesis inhibition rate (%))?
**A.** The inhibition at 50 µM was 25.6%.

**Q.** What about the inhibition at 100 µM ([3]; Mus musculus, B16, 48 h, concentration 100 μM, 48 hours, B16 melanoma cells, read-out: Melanogenesis inhibition rate (%)) of the same compound?
**A.** The inhibition at 100 µM was over 30%.

**Q.** And the “inhibition effect on melanogenesis in B16 melanoma cells (in words)” value ([3]; concentration of 10 to 100 μM, P<0.05)?
**A.** Its value is “significant inhibition effect on melanogenesis”.

**Q.** And the “DPPH radical scavenging activity” value [4]?
**A.** Its value is “scavenge DPPH radicals in a concentration-dependent manner”.

**Q.** And the “cytotoxicity against HepG2 cells (MTT, cell viability)” value [5]?
**A.** The value was “no cytotoxicity”.

**Q.** For `O=C1O[C@H]([C@@H](O)CO)C(O)=C1O` [L-Ascorbic acid, L-ascorbic acid, reference compound], which inhibition at 0.1 µM ([3]; Mus musculus, B16, 48 h, concentration 0.1 μM, 48 hours, B16 melanoma cells, read-out: Melanogenesis inhibition rate (%)) is on record?
**A.** The inhibition at 0.1 µM was 9.2%.

**Q.** What about the inhibition at 5 µM ([3]; Mus musculus, B16, 48 h, concentration 5 μM, 48 hours, B16 melanoma cells, read-out: Melanogenesis inhibition rate (%)) of the same compound?
**A.** Its inhibition at 5 µM is 15.6%.

**Q.** What about the inhibition at 10 µM [3, 6] of the same compound?
**A.** Its inhibition at 10 µM is 32.8%.
